Measurements reported in patent US9586931B2 (Merck Sharp & Dohme Corp., priority 2012, dated 2017).
pIC50: −log10 of the molar value.

What follows are compounds tested against T1, recombinant human GST-Syk (Homo sapiens, UniProt P43405) (assay: Homogeneous Time-Resolved Fluorescence (HTRF) assay for the recombinant human Syk enzyme). Details: recombinant human GST-Syk 5 pM, ATP 25 μM, 10-dose titration 10 μM to 0.508 nM; read-out: rhSYK Activity IC50.
T1 construct: purchased Carna Biosciences 08-176
Type: biochemical
Outline: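 GST-hSyk fusion protein phosphorylated a peptide for 45 min at room temperature. The reaction was quenched with 2 nM Eu-anti-phosphotyrosine antibody and 70 nM SA-APC in 15 mM Tris pH 7.5, 40 mM EDTA, 0.01% Tween 20. The HTRF signal was read after 30 min.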

pIC50	Compound
7.27	Cc1cc(Nc2cc(C(F)(F)F)ccn2)nc(-c2cn(C3C=CCCCC3)nn2)c1 (centres unmarked) [Example 9.2, 6-(1-cyclohept-2-en-1-yl-1H-1,2,3-triazol-4-yl)-4-methyl-N-[4-(trifluoromethyl)-pyridin-2-yl]pyridin-2-amine]
7.18	COc1nc(Nc2cc(C)cc(-c3cn(CC(C)(O)C(C)(C)O)nn3)c2)ncc1F (centres unmarked) [Example 21.33, 1-(4-{3-[(5-fluoro-4-methoxypyrimidin-2-yl)amino]-5-methylphenyl}-1H-1,2,3-triazol-1-yl)-2,3-dimethylbutane-2,3-diol]
7.63	Cc1cc(Nc2cc(C(F)(F)F)ccn2)nc(-c2cn(C3CN(C(=O)C(C)O)CC3O)nn2)c1 (single isomer, unassigned) [Example 13.2, 1-[2-hydroxypropanoyl]-4-[4-(4-methyl-6-{[4-(trifluoromethyl)pyridin-2-yl]amino}pyridin-2-yl)-1H-1,2,3-triazol-1-yl]pyrrolidin-3-ol]
8.11	Cc1cc(Nc2nccc(C(F)(F)F)n2)cc(-c2nnc(CCC(=O)O)[nH]2)c1 [Example 20.1, 3-(5-(3-Methyl-5-((4-(trifluoromethyl)pyrimidin-2-yl)amino)phenyl)-4H-1,2,4-triazol-3-yl)propanoic acid]
7.65	Cc1cc(Nc2cc(C(C)F)ccn2)nc(-c2cn(CC(C)(O)C(C)(C)O)nn2)c1 (centres unmarked) [Example 21.32, 1-[4-(6-{[4-(1-fluoroethyl)pyridin-2-yl]amino}-4-methylpyridin-2-yl)-1H-1,2,3-triazol-1-yl]-2,3-dimethylbutane-2,3-diol]
7.52	CCC(O)C(O)Cn1cc(-c2cc(C)cc(Nc3cc(C(F)(F)F)ccn3)n2)nn1 (centres unmarked) [Example 10.7, 1,4,5-trideoxy-1-[4-(4-methyl-6-{[4-(trifluoromethyl)pyridin-2-yl]amino}pyridin-2-yl)-1H-1,2,3-triazol-1-yl]pentitol]
7.53	Cc1cc(Nc2nccc(C(F)(F)F)n2)cc(-c2cn(CC(C)(O)C(C)(C)O)nn2)c1 (centres unmarked) [Example 21.19, 2,3-dimethyl-1-[4-(3-methyl-5-{[4-(trifluoromethyl)pyrimidin-2-yl]amino}phenyl)-1H-1,2,3-triazol-1-yl]butane-2,3-diol]
8.74	Cc1cc(Nc2cc(C(F)F)ccn2)nc(-c2cn(CC(C)(O)CO)nn2)c1 (centres unmarked) [Example 21.39, 3-(4-(6-((4-(difluoromethyl)pyridin-2-yl)amino)-4-methylpyridin-2-yl)-1H-1,2,3-triazol-1-yl)-2-methylpropane-1,2-diol]

Further lines, the compound ahead of its results:

Compound	pIC50
Cc1cc(Nc2cc(C(F)F)ccn2)nc(-c2cn(C(C)C3CNC(=O)O3)nn2)c1 (single isomer, unassigned) [Example 7.10, 5-(1-(4-(6-((4-(difluoromethyl)pyridin-2-yl)amino)-4-methylpyridin-2-yl)-1H-1,2,3-triazol-1-yl)ethyl)oxazolidin-2-one]	8.77
Cc1cc(Nc2nccc(C(F)(F)F)n2)cc(-c2cn(CC#N)nn2)c1 [Example 5.78, [4-(3-methyl-5-{[4-(trifluoromethyl)pyrimidin-2-yl]amino}phenyl)-1H-1,2,3-triazol-1-yl]acetonitrile]	7.08
COC(=O)C1CCC(n2cc(-c3cc(C)cc(Nc4cc(C(F)(F)F)ccn4)n3)nn2)c2ccccc21 (racemic) [Example 5.25, methyl 4-[4-(4-methyl-6-{[4-(trifluoromethyl)pyridin-2-yl]amino}pyridin-2-yl)-1H-1,2,3-triazol-1-yl]-1,2,3,4-tetrahydronaphthalene-1-carboxylate]	6.28
CCOc1ccnc(Nc2cc(C)cc(-c3cn(C(C)c4ccc(C(=O)O)cc4)nn3)n2)c1 (centres unmarked) [Example 2.9, 4-[1-(4-{6-[(4-ethoxypyridin-2-yl)amino]-4-methylpyridin-2-yl}-1H-1,2,3-triazol-1-yl)ethyl]benzoic acid]	7.23
Cc1cc(Nc2cc(C(F)F)ccn2)nc(-c2cn(C(C)C3CNC(=O)O3)nn2)c1 (single isomer, unassigned) [Example 7.11, 5-(1-(4-(6-((4-(difluoromethyl)pyridin-2-yl)amino)-4-methylpyridin-2-yl)-1H-1,2,3-triazol-1-yl)ethyl)oxazolidin-2-one]	8.85
Cc1cc(Nc2nccc(C(F)(F)F)n2)cc(-c2cn(Cc3noc(C)n3)nn2)c1 [Example 5.69, N-(3-methyl-5-{1-[(5-methyl-1,2,4-oxadiazol-3-yl)methyl]-1H-1,2,3-triazol-4-yl}phenyl)-4-(trifluoromethyl)pyrimidin-2-amine]	7.24
Cc1cc(Nc2nccc(C(F)(F)F)n2)cc(-c2cn(C(C)C(O)CC#N)nn2)c1 (single isomer, unassigned) [Example 4.6, 3-hydroxy-4-[4-(3-methyl-5-{[4-(trifluoromethyl)pyrimidin-2-yl]amino}phenyl)-1H-1,2,3-triazol-1-yl]pentanenitrile]	7.34
Cc1cc(Nc2cc(C(F)(F)F)ccn2)nc(-c2cn(CCOC(N)=O)nn2)c1 [Example 5.110, 2-[4-(4-methyl-6-{[4-(trifluoromethyl)pyridin-2-yl]amino}pyridin-2-yl)-1H-1,2,3-triazol-1-yl]ethyl carbamate]	8.21
Cc1cc(Nc2cc(C(F)(F)F)ccn2)nc(-c2cn(C(C)C(=O)NCCc3c[nH]c4ccccc34)nn2)c1 (centres unmarked) [Example 1.29]	6.91
Cc1cc(Nc2nccc(C(F)(F)F)n2)cc(-c2cn(C[C@H](O)CC#N)nn2)c1 [Example 5.98, (3R)-3-hydroxy-4-[4-(3-methyl-5-{[4-(trifluoromethyl)pyrimidin-2-yl]amino}phenyl)-1H-1,2,3-triazol-1-yl]butanenitrile]	7.70
Cc1cc(Nc2nccc(C(F)(F)F)n2)cc(-c2cn(C(C)C(O)CC#N)nn2)c1 (single isomer, unassigned) [Example 4.9, 3-hydroxy-4-[4-(3-methyl-5-{[4-(trifluoromethyl)pyrimidin-2-yl]amino}phenyl)-1H-1,2,3-triazol-1-yl]pentanenitrile]	7.60
Cc1cc(Nc2cc(C(F)(F)F)ccn2)nc(-c2cn(C[C@]3(O)C[C@H](C#N)C3)nn2)c1 [Example 4.26, trans-3-hydroxy-3-{[4-(4-methyl-6-{[4-(trifluoromethyl)pyridin-2-yl]amino}pyridin-2-yl)-1H-1,2,3-triazol-1-yl]methyl}cyclobutanecarbonitrile]	9.15
Cc1cc(Nc2cc(C(F)F)ccn2)nc(-c2cn(CC3CNC(=O)O3)nn2)c1 (single isomer, unassigned) [Example 7.12, 5-((4-(6-((4-(difluoromethyl)pyridin-2-yl)amino)-4-methylpyridin-2-yl)-1H-1,2,3-triazol-1-yl)methyl)oxazolidin-2-one]	8.70
Cc1cc(Nc2cc(C(F)F)ccn2)nc(-c2cn(CC3CNC(=O)O3)nn2)c1 (single isomer, unassigned) [Example 7.13, 5-((4-(6-((4-(difluoromethyl)pyridin-2-yl)amino)-4-methylpyridin-2-yl)-1H-1,2,3-triazol-1-yl)methyl)oxazolidin-2-one]	8.70
Cc1cc(Nc2nccc(C(F)F)n2)cc(-c2cn(CC3OC(=O)NC3C)nn2)c1 (single isomer, unassigned) [Example 7.6, 5-((4-(3-((4-(difluoromethyl)pyrimidin-2-yl)amino)-5-methylphenyl)-1H-1,2,3-triazol-1-yl)methyl)-4-methyloxazolidin-2-one]	7.99
